Assay results published in BindingDB's records for patent US11053253 (Achillion Pharmaceuticals, 2021).

The compounds below were run against Complement factor D (Homo sapiens, UniProt P00746) (assay: Human Factor D Assay).
Protocol: Human Factor D (purified from human serum, Complement Technology, Inc.) at 80 nM final concentration is incubated with test compound at various concentrations for 5 min at room temperature in 50 mM Tris, 1M NaCl, pH 7.5. A synthetic substrate Z-L-Lys-SBzl and DTNB (Ellman's reagent) are added to final concentrations of 100 µM each. Absorbance at 405 nm (A405) is recorded at 30 second intervals for 30 minutes using a microplate spectrophotometer. IC50 values are calculated by nonlinear regression of Complement Factor D reaction rates as a function of test compound concentration.

Complement factor D, sequence (P00746 whole entry): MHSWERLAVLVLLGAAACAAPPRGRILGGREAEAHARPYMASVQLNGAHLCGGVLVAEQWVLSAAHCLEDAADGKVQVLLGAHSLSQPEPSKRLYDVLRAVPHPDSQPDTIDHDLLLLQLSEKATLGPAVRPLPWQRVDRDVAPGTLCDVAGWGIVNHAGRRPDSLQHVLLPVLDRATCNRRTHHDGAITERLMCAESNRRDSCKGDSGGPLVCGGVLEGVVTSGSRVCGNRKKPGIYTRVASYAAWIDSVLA

Row | Structure (SMILES) | IC50 [µM]
1 | CC(=O)c1nn(CC(=O)N2[C@H]3C[C@]4(C[C@@H]24)Cn2ccc(n2)/C=C/COCc2ccc(Br)nc2NC3=O)c2ccc(-c3cnc(C)nc3)cc12 [US11053253, Cmp No. T-67] | < 1
2 | CC(=O)c1nn(CC(=O)N2[C@H]3C[C@]4(C[C@@H]24)Cn2ccc(n2)/C=C/COCc2ccc(Br)nc2NC3=O)c2cnc(-c3cnc(C)nc3)cc12 [US11053253, Cmp No. T-68] | < 1
3 | CC(=O)c1nn(CC(=O)N2[C@H]3C[C@@]4(COCC=CCOCc5cc(Br)nc(c5)NC3=O)C[C@@H]24)c2cnc(-c3cnc(C)nc3)cc12 [US11053253, Cmp No. T-83] | < 1
4 | CC(=O)c1nn(CC(=O)N2[C@H]3C[C@@]4(C=CCCCN(C)S(=O)(=O)Cc5ccc(Br)nc5NC3=O)C[C@@H]24)c2ccc(-c3cnc(C)nc3)cc12 [US11053253, Cmp No. T-215] | < 1
5 | CC(=O)c1nn(CC(=O)N2[C@H]3C[C@@]4(C=CCCCN(C)S(=O)(=O)Cc5ccc(Br)nc5NC3=O)C[C@@H]24)c2c(C)cc(-c3cnc(C)nc3)cc12 [US11053253, Cmp No. T-216] | < 1
